# Experiments:
# [1] = system: human gastric cancer MKN1 cells; assay: Assay of cell proliferation (CellTiter-Glo); format: cell-based; conditions: Homo sapiens, MKN-1, 144 h; MNK1, 6 days; read-out: MKN1 IC50 of cell proliferation inhibitory activity
# Experimental: (§1) Human ovarian cancer OVCAR3 cells were inoculated at 2000 cells/well in a 96-well plate and cultured in RPMI 1640 medium containing 20% FBS at 37 °C and 5% CO2 overnight in an incubator. The next day, the compounds were subjected to a three-fold gradient dilution in DMSO from a peak concentration of 2 mM to give nine concentrations. Then, the compounds were diluted 3:200 in growth medium, and finally diluted 1:3 in the cell culture supernatant to give a culture supernatant containing 0.5% DMSO, with the compounds treatment concentrations ranging from 10 µM to 0.1 nM. The cells and the compounds were incubated at 37 °C and 5% CO2 for 6 days. Then, cell proliferation assay was performed using the CellTiter-Glo (manufacturer: Promega, Cat. No. G9242), and luminescence signals were read using a multifunctional microplate reader (model: Synergy H1, manufacturer: BiotTek). IC50 values were calculated by fitting of the concentration-response curves with a four-parameter analysis method using GraphPad Prism software.
# (§2) The cell proliferation assays of human colon cancer HCT-116 cells, human breast cancer MCF-7 cells, human breast cancer HCC1806 cells, human acute myeloid leukemia MV-4-11 cells, and human gastric cancer MKN1 cells were performed according to the same method, with different inoculation densities set according to different cell growth characteristics.
# [2] = system: human acute myeloid leukemia MV-4-11 cells; assay: Assay of cell proliferation (CellTiter-Glo); format: cell-based; conditions: MV4-11, 144 h, 6 days, read-out: MV-4-11 IC50 of cell proliferation inhibitory activity
# Experimental: as §1, §2
# [3] = system: human breast cancer HCC1806 cells; assay: Assay of cell proliferation (CellTiter-Glo); format: cell-based; conditions: Homo sapiens, 144 h, 6 days, read-out: HCC1806 IC50 of cell proliferation inhibitory activity
# Experimental: as §1, §2
# CDK2/cyclin E = CDK2/cyclin E (Homo sapiens, UniProt P24941); assay: Assay of kinase activity (ADP-Glo); format: biochemical; conditions: kinase inhibitory activity, read-out: CDK2/E1 IC50
# Experimental: (§3) CDK/cyclin catalyzes the phosphorylation of a substrate, which concomitantly consumes ATP and produces ADP. The inhibition rate (%) in the presence of a small molecule inhibitor was assessed by measuring the amount of ADP generated in the reaction. The assay compounds were thoroughly mixed by vortexing and then diluted in DMSO to 100× the assay concentration. […] A 2× kinase solution was prepared using a 1× kinase reaction buffer (50 mM Hepes, 10 mM MgCl2, 0.01% Brij35, 2 mM DTT). 2 µL of the kinase solution was transferred to the 384-well assay plate, and the plate was centrifuged at 1000 rpm for 60 seconds in a microplate centrifuge. The plate was incubated at 25 °C in a biochemical incubator for 10 minutes. A 2x mixture of substrate and ATP was prepared in the kinase reaction buffer. Then, 2 µL of the mixture of substrate and ATP was added to the 384-well assay plate. The plate was centrifuged at 1000 rpm for 60 seconds in a microplate centrifuge, and incubated at 25 °C in a biochemical incubator for 60 minutes. 4 µL of ADP-Glo Reagent (Cat. No. V9103, manufacturer: Promega) incubated at 25 °C in a biochemical incubator was added to each well of the 384-well assay plate. The plate was centrifuged at 1000 rpm for 60 seconds in a microplate centrifuge, and incubated at 25 °C in a biochemical incubator for 40 minutes. 8 µL of Detection Reagent incubated at 25 °C in a biochemical incubator was added to each well of the 384-well assay plate. The plate was centrifuged at 1000 rpm for 60 seconds in a microplate centrifuge, and incubated at 25 °C in a biochemical incubator for 40 minutes. Finally, luminescence signals were read using a multifunctional microplate reader (model: PHERAstar FSX, manufacturer: BMG). IC50 values were calculated by nonlinear fitting of the concentration-response curves using GraphPad Prism software.
# CDK4/cyclin D1 = CDK4/cyclin D1 (Homo sapiens, UniProt P11802); assay: Assay of kinase activity (ADP-Glo); format: biochemical; conditions: kinase inhibitory activity
# Experimental: as §3
# [4] = system: Human ovarian cancer OVCAR3 cells; assay: Assay of cell proliferation (CellTiter-Glo); format: cell-based; conditions: Homo sapiens, OVCAR-3, 144 h, 6 days, read-out: OVCAR3 IC50 of cell proliferation inhibitory activity
# Experimental: as §1
# CDK9/cyclin T1 = CDK9/cyclin T1 (Homo sapiens, UniProt P50750); assay: Assay of kinase activity (ADP-Glo); format: biochemical; conditions: kinase inhibitory activity
# Experimental: (§4) CDK/cyclin catalyzes the phosphorylation of a substrate, which concomitantly consumes ATP and produces ADP. The inhibition rate (%) in the presence of a small molecule inhibitor was assessed by measuring the amount of ADP generated in the reaction. The assay compounds were thoroughly mixed by vortexing and then diluted in DMSO to 100× the assay concentration. 40 nL of a compound was transferred to a 384-well assay plate using a nanoliter pipetting system (ECHO® 655 SYSTEM). A 2× kinase solution was prepared using a 1× kinase reaction buffer (50 mM Hepes, 10 mM MgCl2, 0.01% Brij35, 2 mM DTT). 2 µL of the kinase solution was transferred to the 384-well assay plate, and the plate was centrifuged at 1000 rpm for 60 seconds in a microplate centrifuge. The plate was incubated at 25 °C in a biochemical incubator for 10 minutes. A 2x mixture of substrate and ATP was prepared in the kinase reaction buffer. Then, 2 µL of the mixture of substrate and ATP was added to the 384-well assay plate. The plate was centrifuged at 1000 rpm for 60 seconds in a microplate centrifuge, and incubated at 25 °C in a biochemical incubator for 60 minutes. 4 µL of ADP-Glo Reagent (Cat. No. V9103, manufacturer: Promega) incubated at 25 °C in a biochemical incubator was added to each well of the 384-well assay plate. The plate was centrifuged at 1000 rpm for 60 seconds in a microplate centrifuge, and incubated at 25 °C in a biochemical incubator for 40 minutes. 8 µL of Detection Reagent incubated at 25 °C in a biochemical incubator was added to each well of the 384-well assay plate. The plate was centrifuged at 1000 rpm for 60 seconds in a microplate centrifuge, and incubated at 25 °C in a biochemical incubator for 40 minutes. Finally, luminescence signals were read using a multifunctional microplate reader (model: PHERAstar FSX, manufacturer: BMG). IC50 values were calculated by nonlinear fitting of the concentration-response curves using GraphPad Prism software.
# CDK6/cyclin D3 = CDK6/cyclin D3 (Homo sapiens, UniProt Q00534); assay: Assay of kinase activity (ADP-Glo); format: biochemical; conditions: kinase inhibitory activity
# Experimental: as §4
# Sequence of CDK6/cyclin D3 (Q00534 whole entry, species assumed): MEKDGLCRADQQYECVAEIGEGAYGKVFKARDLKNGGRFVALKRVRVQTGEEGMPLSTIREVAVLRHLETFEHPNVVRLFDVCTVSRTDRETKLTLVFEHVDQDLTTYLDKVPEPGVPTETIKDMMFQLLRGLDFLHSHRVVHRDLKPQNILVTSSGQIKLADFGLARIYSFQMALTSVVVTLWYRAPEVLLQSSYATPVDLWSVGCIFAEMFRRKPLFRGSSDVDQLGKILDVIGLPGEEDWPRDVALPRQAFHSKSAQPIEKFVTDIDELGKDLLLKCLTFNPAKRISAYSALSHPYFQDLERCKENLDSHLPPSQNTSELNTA
# Sequence of CDK6/cyclin D3 (P30281 whole entry partner, species assumed): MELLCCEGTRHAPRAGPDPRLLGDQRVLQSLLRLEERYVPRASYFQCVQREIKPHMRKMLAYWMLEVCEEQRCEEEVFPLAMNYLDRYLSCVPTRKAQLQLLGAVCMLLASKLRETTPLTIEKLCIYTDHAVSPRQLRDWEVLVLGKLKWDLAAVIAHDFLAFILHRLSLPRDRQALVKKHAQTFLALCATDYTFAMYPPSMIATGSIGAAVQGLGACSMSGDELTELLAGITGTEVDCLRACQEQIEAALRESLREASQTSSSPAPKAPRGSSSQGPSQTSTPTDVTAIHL
# Sequence of CDK9/cyclin T1 (P50750 whole entry, species assumed): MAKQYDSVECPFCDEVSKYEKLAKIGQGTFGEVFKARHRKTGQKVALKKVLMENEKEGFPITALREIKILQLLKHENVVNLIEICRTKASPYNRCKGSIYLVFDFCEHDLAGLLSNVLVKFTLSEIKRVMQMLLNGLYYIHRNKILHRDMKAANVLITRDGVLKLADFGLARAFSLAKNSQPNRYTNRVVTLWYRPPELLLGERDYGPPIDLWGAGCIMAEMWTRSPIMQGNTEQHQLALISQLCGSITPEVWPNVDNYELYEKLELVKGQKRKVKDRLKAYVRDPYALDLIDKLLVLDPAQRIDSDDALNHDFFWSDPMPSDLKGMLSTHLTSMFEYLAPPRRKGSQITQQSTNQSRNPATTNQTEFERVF
# Sequence of CDK9/cyclin T1 (O60563 whole entry partner, species assumed): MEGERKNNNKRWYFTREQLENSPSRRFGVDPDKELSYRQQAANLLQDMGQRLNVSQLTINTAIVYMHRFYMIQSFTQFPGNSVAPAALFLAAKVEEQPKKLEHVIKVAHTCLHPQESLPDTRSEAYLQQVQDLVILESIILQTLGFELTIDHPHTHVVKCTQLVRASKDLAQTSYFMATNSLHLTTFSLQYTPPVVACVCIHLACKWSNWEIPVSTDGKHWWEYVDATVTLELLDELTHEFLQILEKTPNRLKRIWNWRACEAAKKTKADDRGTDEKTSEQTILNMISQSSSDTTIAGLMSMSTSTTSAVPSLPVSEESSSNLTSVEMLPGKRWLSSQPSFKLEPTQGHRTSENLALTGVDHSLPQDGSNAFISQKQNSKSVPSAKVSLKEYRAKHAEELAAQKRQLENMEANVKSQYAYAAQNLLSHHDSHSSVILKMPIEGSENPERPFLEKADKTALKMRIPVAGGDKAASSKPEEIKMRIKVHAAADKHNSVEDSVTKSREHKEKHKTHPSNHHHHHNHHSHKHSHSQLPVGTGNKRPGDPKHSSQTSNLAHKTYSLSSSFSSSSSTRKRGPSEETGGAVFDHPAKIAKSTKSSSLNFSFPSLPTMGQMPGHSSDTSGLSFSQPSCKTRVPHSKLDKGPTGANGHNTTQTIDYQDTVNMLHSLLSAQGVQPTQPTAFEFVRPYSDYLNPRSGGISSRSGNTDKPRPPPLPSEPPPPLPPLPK
# Sequence of CDK4/cyclin D1 (P11802 whole entry, species assumed): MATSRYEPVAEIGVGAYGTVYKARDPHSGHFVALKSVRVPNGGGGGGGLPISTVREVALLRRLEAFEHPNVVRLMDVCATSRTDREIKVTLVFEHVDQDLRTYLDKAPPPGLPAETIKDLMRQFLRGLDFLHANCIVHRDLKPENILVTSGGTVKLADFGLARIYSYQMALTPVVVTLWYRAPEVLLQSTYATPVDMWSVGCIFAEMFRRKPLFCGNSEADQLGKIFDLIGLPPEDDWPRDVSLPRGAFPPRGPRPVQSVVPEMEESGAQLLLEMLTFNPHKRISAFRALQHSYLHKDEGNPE
# Sequence of CDK4/cyclin D1 (P24385 whole entry partner, species assumed): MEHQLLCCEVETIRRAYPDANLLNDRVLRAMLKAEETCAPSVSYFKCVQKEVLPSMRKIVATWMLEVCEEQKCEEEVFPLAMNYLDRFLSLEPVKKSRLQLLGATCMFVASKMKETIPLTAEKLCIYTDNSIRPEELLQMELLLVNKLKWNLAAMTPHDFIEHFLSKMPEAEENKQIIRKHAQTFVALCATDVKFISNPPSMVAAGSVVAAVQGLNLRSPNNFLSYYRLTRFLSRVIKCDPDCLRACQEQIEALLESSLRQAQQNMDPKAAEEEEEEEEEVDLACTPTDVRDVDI
IC50 [1],IC50 [2],IC50 [3],IC50 (CDK2/cyclin E),IC50 (CDK4/cyclin D1),IC50 [4],IC50 (CDK9/cyclin T1),IC50 (CDK6/cyclin D3),SMILES
3 nM,2 nM,12 nM,0.1 nM,0.6 nM,7 nM,3 nM,4 nM,"CN(C)[C@H]1CCN(C(=O)c2ccc(Nc3ncc4ccc5nnn([C@@H]6CCC[C@@]6(C)O)c5c4n3)cc2)C1 [Example I-64, ((S)-3-(Dimethylamino)pyrrolidin-1-yl)(4-((1-((1R,2R)-2-hydroxy-2-methylcyclopentyl)-1H-[1,2,3]triazolo[4,5-H]quinazolin-8-yl)amino)phenyl)methanone]"
7 nM,2 nM,73 nM,0.06 nM,0.5 nM,26 nM,2 nM,3 nM,"CN[C@H]1CCN(C(=O)c2ccc(Nc3ncc4ccc5nnn(C(C)C)c5c4n3)cc2)C1 [Example I-6, (S)-(4-((1-Isopropyl-1H-[1,2,3]triazolo[4,5-H]quinazolin-8-yl)amino)phenyl)(3-(methylamino)pyrrolidin-1-yl)methanone]"
100 nM,51 nM,441 nM,2 nM,7 nM,301 nM,122 nM,149 nM,"C[C@H](CO)n1nnc2ccc3cnc(Nc4ccc(C(=O)N5CCOCC5)cc4)nc3c21 [Example I-51, (R)-(4-((1-(1-Hydroxypropan-2-yl)-1H-[1,2,3]triazolo[4,5-H]quinazolin-8-yl)amino)phenyl)(morpholino)methanone]"
56 nM,5 nM,115 nM,2 nM,4 nM,27 nM,4 nM,23 nM,"CC(C)n1nnc2ccc3cnc(Nc4ccc(C(=O)N5CCNC(C)(C)C5)cc4)nc3c21 [Example I-22, (3,3-Dimethylpiperazin-1-yl)(4-((1-isopropyl-1H-[1,2,3]triazolo[4,5-H]quinazolin-8-yl)amino)phenyl)metha none]"
1 nM,1 nM,15 nM,0.08 nM,0.6 nM,6 nM,3 nM,3 nM,"CC(C)N[C@H]1CCN(C(=O)c2ccc(Nc3ncc4ccc5nnn([C@@H]6CCC[C@@]6(C)O)c5c4n3)cc2)C1 [Example I-63, (4-((1-((1R,2R)-2-Hydroxy-2-methylcyclopentyl)-1H-[1,2,3]triazolo[4,5-H]quinazolin-8-yl)amino)phenyl)((S)-3-(isopropylamino)pyrrolidin-1-yl)methanone]"
41 nM,12 nM,98 nM,0.8 nM,1 nM,88 nM,19 nM,3 nM,"C[C@@H](n1nnc2ccc3cnc(Nc4ccc(C(=O)N5CCCNCC5)cc4)nc3c21)C(C)(C)O [Example I-60, (R)-(1,4-Diazepan-1-yl)(4-((1-(3-hydroxy-3-methylbutan-2-yl)-1H-[1,2,3]triazolo[4,5-H]quinazolin-8-yl)amino)phenyl)methanone]"

# More lines, now with the values behind:
SMILES,IC50 [1],IC50 [2],IC50 [3],IC50 (CDK2/cyclin E),IC50 (CDK4/cyclin D1),IC50 [4],IC50 (CDK9/cyclin T1),IC50 (CDK6/cyclin D3)
"CC(C)n1nnc2ccc3cnc(Nc4ccc(C(=O)N5CC[C@@H](N(C)C)C5)cc4)nc3c21 [Example I-11, (R)-(3-(Dimethylamino)pyrrolidin-1-yl)(4-((1-isopropyl-1H-[1,2,3]triazolo[4,5-H]quinazolin-8-yl)amino)phenyl)metha none]",29 nM,4 nM,122 nM,0.08 nM,0.7 nM,148 nM,2 nM,6 nM
"CC(C)N[C@@H]1CCN(C(=O)c2ccc(Nc3ncc4ccc5nnn(C(C)C)c5c4n3)cc2)C1 [Example I-9, (R)-(4-((1-Isopropyl-1H-[1,2,3]triazolo[4,5-H]quinazolin-8-yl)amino)phenyl)(3-(isopropylamino)pyrrolidin-1-yl)methanone]",11 nM,3 nM,53 nM,0.2 nM,1 nM,26 nM,2 nM,15 nM
"CN1CCCN(C(=O)c2ccc(Nc3ncc4ccc5nnn([C@@H]6CCC[C@@]6(C)O)c5c4n3)cc2)CC1 [Example I-70, (4-((1-((1,2R)-2-hydroxy-2-methylcyclopentyl)-1H-[1,2,3]triazolo[4,5-H]quinazolin-8-yl)amino)phenyl)(4-methyl-1,4-diazepan-1-yl)methanone]",1 nM,1 nM,3 nM,0.06 nM,0.7 nM,2 nM,2 nM,2 nM
"CC(C)N[C@H]1CCN(C(=O)c2ccc(Nc3ncc4ccc5nnn([C@H](C)C(C)(C)O)c5c4n3)cc2)C1 [Example I-55, (4-((1-((R)-3-hydroxy-3-methylbutan-2-yl)-1H-[1,2,3]triazolo[4,5-H]quinazolin-8-yl)amino)phenyl)((S)-3-(isopropylamino)pyrrolidin-1-yl)methanone]",15 nM,5 nM,80 nM,0.7 nM,2 nM,31 nM,6 nM,18 nM
"CC(C)n1nnc2ccc3cnc(Nc4ccc(C(=O)N5CCN[C@H](C)C5)cc4)nc3c21 [Example I-21, (R)-(4-((1-Isopropyl-1H-[1,2,3]triazolo[4,5-H]quinazolin-8-yl)amino)phenyl)(3-methylpiperazin-1-yl)methanone]",31 nM,4 nM,112 nM,0.5 nM,1 nM,35 nM,2 nM,14 nM
C[C@@]1(O)CCC[C@H]1n1nnc2ccc3cnc(Nc4ccc(C(=O)N5CCNCC5)cc4)nc3c21 [Example I-65],8 nM,5 nM,111 nM,0.6 nM,0.6 nM,35 nM,3 nM,3 nM
